Publication PMC8799717, “Pharmacological targeting PIKfyve and tubulin as an effective treatment strategy for double-hit lymphoma” (Cell Death Discovery, 2022)

Columns and labels:
Test in all cases: biochemical
Design in all cases: KINOMEscan active-site-directed competition binding panel, 468 kinases, percent of DMSO control at 1 uM
Conditions in all cases: KINOMEscan binding, percent of DMSO control; read-out: Ctrl%
EPHA4 = EPHA4 (Homo sapiens, UniProt P54764)
PRKG1 = PRKG1 (Homo sapiens, UniProt Q13976)
ERBB4 = ERBB4 (Homo sapiens, UniProt Q15303)
MAP3K3 = MAP3K3 (Homo sapiens, UniProt Q99759)
BRSK2 = BRSK2 (Homo sapiens, UniProt Q8IWQ3)
Sequence of BRSK2 (Q8IWQ3 whole entry): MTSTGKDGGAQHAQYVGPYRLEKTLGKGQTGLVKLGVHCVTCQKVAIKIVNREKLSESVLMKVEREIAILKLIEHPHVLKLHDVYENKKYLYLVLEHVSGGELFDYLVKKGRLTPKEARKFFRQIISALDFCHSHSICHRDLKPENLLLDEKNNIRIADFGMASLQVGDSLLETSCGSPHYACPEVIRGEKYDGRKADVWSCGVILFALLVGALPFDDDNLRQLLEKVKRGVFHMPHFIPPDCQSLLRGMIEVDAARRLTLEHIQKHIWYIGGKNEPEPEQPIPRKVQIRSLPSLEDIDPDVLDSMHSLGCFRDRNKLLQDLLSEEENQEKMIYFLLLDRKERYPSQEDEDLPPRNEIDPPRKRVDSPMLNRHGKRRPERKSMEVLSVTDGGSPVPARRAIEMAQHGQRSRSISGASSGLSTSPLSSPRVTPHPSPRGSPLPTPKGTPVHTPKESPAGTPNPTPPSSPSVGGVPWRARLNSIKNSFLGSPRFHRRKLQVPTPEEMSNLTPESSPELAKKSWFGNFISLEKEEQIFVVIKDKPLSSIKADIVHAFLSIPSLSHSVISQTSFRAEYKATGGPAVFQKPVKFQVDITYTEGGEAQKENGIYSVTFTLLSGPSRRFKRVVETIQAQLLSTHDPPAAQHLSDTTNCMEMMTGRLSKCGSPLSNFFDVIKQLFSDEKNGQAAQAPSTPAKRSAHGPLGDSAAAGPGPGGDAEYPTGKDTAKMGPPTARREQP

PIK3CA(I800L) = PIK3CA(I800L) (Homo sapiens, UniProt P42336, I800L)
MET = MET (Homo sapiens, UniProt P08581)
Sequence of MET (P08581 whole entry): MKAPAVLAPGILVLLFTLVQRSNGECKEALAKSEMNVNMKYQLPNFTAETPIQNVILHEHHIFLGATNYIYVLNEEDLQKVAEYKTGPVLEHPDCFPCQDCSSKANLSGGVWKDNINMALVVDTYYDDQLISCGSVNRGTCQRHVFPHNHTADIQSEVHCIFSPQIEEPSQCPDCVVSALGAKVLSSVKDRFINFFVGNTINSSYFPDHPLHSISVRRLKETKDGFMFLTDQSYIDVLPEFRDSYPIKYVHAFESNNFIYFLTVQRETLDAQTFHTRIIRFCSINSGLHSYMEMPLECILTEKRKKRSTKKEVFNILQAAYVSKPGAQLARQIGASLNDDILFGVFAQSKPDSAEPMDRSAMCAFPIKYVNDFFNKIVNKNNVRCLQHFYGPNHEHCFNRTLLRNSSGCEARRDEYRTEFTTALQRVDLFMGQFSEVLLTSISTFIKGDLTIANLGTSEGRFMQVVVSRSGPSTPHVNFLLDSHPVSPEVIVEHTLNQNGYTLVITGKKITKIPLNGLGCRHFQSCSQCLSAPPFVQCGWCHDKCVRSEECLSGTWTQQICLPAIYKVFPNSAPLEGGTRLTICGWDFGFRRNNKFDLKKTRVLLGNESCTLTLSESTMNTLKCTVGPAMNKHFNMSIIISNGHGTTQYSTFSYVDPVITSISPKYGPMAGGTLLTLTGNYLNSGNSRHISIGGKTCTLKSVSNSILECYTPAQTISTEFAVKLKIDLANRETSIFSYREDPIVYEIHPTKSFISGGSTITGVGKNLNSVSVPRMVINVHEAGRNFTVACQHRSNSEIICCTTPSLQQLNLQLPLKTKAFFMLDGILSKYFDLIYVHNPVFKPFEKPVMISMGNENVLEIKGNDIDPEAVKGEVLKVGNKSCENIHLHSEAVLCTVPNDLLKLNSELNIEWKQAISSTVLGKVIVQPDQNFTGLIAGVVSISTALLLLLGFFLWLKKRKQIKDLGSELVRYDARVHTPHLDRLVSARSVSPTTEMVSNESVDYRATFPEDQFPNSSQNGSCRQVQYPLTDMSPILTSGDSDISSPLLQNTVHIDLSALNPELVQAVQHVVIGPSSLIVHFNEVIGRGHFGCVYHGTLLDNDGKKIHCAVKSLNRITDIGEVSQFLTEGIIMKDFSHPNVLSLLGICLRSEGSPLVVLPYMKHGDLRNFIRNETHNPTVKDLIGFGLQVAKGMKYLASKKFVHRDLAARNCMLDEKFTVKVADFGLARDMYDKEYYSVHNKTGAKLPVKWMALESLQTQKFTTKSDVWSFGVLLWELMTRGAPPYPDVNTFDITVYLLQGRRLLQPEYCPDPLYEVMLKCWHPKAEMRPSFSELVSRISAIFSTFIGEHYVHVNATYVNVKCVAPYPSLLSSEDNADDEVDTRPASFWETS

KIT(A829P) = KIT(A829P) (Homo sapiens, UniProt P10721, A829P)
[1] = molecular target: T1, RSK1(Kin.Dom.2-C-terminal) (Homo sapiens, UniProt Q15418)
T1 construct: gene RPS6KA1; Kin.Dom.2-C-terminal
T1 sequence (Q15418 whole entry): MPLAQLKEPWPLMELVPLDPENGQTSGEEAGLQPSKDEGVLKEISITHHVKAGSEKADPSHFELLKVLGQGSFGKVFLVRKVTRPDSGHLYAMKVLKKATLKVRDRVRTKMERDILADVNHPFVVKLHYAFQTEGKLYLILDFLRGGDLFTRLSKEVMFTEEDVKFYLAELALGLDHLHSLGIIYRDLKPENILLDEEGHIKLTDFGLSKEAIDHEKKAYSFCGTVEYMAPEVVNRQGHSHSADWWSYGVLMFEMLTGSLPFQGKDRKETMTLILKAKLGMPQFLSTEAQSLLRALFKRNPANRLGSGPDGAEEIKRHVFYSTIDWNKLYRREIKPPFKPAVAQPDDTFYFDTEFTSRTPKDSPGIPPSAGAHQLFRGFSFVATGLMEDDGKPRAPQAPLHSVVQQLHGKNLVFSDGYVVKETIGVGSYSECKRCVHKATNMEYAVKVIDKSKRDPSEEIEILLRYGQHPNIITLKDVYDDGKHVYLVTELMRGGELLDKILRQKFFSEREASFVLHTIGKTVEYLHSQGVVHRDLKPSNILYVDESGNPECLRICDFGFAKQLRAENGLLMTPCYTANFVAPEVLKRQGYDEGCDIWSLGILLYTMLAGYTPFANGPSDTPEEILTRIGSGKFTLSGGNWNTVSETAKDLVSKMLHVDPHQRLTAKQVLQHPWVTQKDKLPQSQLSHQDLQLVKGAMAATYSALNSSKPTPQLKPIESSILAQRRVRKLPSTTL

FGFR3 = FGFR3 (Homo sapiens, UniProt P22607)
DYRK2 = DYRK2 (Homo sapiens, UniProt Q92630)
Sequence of DYRK2 (Q92630 whole entry): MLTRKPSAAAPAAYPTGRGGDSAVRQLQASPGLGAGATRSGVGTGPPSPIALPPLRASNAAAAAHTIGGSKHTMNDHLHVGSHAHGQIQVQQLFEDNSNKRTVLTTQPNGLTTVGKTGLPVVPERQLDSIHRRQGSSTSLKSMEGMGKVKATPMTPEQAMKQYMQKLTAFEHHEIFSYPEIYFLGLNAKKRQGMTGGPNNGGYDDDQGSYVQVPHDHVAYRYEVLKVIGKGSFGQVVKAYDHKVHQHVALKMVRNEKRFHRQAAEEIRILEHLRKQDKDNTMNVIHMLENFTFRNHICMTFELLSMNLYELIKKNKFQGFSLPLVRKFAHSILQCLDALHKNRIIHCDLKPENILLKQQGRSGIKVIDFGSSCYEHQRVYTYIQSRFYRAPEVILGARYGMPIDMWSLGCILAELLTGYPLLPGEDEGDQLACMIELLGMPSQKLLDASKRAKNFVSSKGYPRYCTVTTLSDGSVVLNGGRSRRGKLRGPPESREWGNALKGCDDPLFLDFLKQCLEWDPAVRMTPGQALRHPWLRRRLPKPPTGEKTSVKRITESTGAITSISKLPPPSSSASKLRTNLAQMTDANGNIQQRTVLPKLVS

PAK7 = molecular target: T2, PAK7 (Homo sapiens, UniProt Q9P286)
T2 construct: gene PAK5

[2] = molecular target: T3, ABL1(Q252H)-nonphosphorylated (Homo sapiens, UniProt P00519, Q252H)
T3 construct: nonphosphorylated

[3] = molecular target: T4, ABL1(F317I)-nonphosphorylated (Homo sapiens, UniProt P00519, F317I)
T4 construct: nonphosphorylated

BRSK1 = BRSK1 (Homo sapiens, UniProt Q8TDC3)
BRAF(V600E) = BRAF(V600E) (Homo sapiens, UniProt P15056, V600E)
GRK4 = GRK4 (Homo sapiens, UniProt P32298)
MAP4K5 = MAP4K5 (Homo sapiens, UniProt Q9Y4K4)
ALK(L1196M) = ALK(L1196M) (Homo sapiens, UniProt Q9UM73, L1196M)
Sequence of ALK(L1196M) (Q9UM73 whole entry L1196M): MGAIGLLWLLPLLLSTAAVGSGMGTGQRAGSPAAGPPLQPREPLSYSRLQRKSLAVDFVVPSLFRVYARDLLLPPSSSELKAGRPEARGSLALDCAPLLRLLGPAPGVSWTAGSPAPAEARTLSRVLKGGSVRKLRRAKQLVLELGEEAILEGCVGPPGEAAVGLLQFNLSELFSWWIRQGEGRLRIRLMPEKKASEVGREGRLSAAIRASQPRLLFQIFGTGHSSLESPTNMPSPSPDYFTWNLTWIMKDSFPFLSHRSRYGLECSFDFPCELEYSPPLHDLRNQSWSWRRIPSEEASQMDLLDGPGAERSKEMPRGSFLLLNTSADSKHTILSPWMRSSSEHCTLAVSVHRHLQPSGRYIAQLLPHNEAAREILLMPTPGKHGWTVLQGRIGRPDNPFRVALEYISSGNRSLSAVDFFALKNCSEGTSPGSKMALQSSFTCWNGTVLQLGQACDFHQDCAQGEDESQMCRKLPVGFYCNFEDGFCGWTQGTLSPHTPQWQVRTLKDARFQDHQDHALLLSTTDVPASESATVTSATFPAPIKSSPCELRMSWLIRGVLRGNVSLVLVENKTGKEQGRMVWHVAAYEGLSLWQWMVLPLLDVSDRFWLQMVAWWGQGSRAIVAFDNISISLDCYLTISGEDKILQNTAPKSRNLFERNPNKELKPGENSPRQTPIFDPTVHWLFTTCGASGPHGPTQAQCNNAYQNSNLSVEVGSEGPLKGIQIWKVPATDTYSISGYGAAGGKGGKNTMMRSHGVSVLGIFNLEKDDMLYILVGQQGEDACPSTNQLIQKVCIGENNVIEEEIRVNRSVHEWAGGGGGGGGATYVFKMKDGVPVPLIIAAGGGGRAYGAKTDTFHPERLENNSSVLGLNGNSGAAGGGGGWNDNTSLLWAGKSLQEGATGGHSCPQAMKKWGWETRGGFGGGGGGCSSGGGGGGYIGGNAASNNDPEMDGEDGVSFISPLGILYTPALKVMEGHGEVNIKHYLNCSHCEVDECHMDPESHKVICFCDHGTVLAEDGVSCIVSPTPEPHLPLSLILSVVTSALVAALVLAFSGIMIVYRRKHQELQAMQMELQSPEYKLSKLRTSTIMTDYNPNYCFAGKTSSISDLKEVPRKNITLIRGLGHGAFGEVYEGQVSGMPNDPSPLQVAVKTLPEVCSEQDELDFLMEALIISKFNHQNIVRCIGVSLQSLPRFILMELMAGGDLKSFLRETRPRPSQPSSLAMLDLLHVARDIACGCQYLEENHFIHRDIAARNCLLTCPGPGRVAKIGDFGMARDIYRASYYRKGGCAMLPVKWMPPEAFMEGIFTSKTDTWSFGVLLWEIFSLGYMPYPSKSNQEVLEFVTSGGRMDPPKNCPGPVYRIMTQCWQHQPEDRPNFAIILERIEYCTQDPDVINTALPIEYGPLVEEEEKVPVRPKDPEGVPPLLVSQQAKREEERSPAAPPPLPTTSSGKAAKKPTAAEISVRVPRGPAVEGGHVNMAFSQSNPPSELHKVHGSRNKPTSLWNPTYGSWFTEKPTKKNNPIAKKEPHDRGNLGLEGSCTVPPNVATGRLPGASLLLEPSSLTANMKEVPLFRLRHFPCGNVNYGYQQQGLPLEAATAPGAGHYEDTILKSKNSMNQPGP

FGFR3(G697C) = FGFR3(G697C) (Homo sapiens, UniProt P22607, G697C)
[4] = molecular target: T5, TYK2(JH2domain-pseudokinase) (Homo sapiens, UniProt P29597)
T5 construct: JH2domain-pseudokinase

ALK = ALK (Homo sapiens, UniProt Q9UM73)
Sequence of ALK (Q9UM73 whole entry): as the sequence (Q9UM73 whole entry L1196M) above, with M1196L counted along it

GCN2(Kin.Dom.2,S808G) = molecular target: T6, GCN2(Kin.Dom.2,S808G) (Homo sapiens, UniProt Q9P2K8, S808G)
T6 construct: gene EIF2AK4; Kin.Dom.2

## Cc1ccc(NC(=O)c2cccc(C(F)(F)F)c2)cc1Nc1cc(-c2cccnc2)nc2[nH]ccc12 [HZX-02-059]
EPHA4
  remaining binding at 1 µM: 8.3%
PRKG1
  remaining binding at 1 µM: 82%
ERBB4
  remaining binding at 1 µM: 86%
MAP3K3
  remaining binding at 1 µM: 89%
BRSK2
  remaining binding at 1 µM: 99%
PIK3CA(I800L)
  remaining binding at 1 µM: 81%
MET
  remaining binding at 1 µM: 94%
KIT(A829P)
  remaining binding at 1 µM: 84%
[1]
  remaining binding at 1 µM: 100%
FGFR3
  remaining binding at 1 µM: 86%
DYRK2
  remaining binding at 1 µM: 88%
PAK7
  remaining binding at 1 µM: 65%
[2]
  remaining binding at 1 µM: 30%
[3]
  remaining binding at 1 µM: 40%
BRSK1
  remaining binding at 1 µM: 97%
BRAF(V600E)
  remaining binding at 1 µM: 4.5%
GRK4
  remaining binding at 1 µM: 83%
MAP4K5
  remaining binding at 1 µM: 73%
ALK(L1196M)
  remaining binding at 1 µM: 97%
FGFR3(G697C)
  remaining binding at 1 µM: 100%
[4]
  remaining binding at 1 µM: 92%
ALK
  remaining binding at 1 µM: 100%
GCN2(Kin.Dom.2,S808G)
  remaining binding at 1 µM: 100%
